Test results as given in patent EP2787958B1, “CHELIDONIUM MAJUS EXTRACTS AND THEIR USE IN THE TREATMENT OF SKIN DISORDERS AND PROMOTION OF SKIN REGENERATION” (priority 2011, dated 2013).
Like-named read-outs stand apart in the source and are kept apart here.

Legend:
[1] = system: interleukin 6 (IL-6); assay: Inflammatory cytokines in cell supernatant (Mosaic ELISA microarray): IL-6; format: cell-based, Human; conditions: for IL-6 ng/(ml* No. of cells from photo) ± SD: 24 hours; for IL-6 production (effect in words): 1-10 µM
[2] = system: interleukin 1β (IL-1β); assay: Inflammatory cytokines in cell supernatant (Mosaic ELISA microarray): IL-1β; format: cell-based, Human; conditions: for IL-1β ng/(ml* No. of cells from photo) ± SD: 24 hours; for IL-1β production (effect in words): 1-10 µM
[3] = system: HDF cells; assay: Summary of uses and toxic effects deduced from the cell assays (Table 1); format: cell-based, Human
Summary of the method: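 HDF cells exposed to test substances at a given dosage for 24 h; uses and toxicity inferred from free-radical scavenging, mitochondrial dehydrogenase activity, IL-1β/IL-6 production (basal or induced by 100 µM H2O2), proliferation under standard growth conditions, and senescence-like morphology.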

[4] = Anti-radical activity (decay of the DPPH radical); format: biochemical; conditions: for Anti-radical (skin protective): 24 hours
Summary of the method: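 Test substance in ethanol mixed 1:1 with 200 µM DPPH (stock concentrations), in quadruplicate. Absorbance read at 530 nm after 30 min, with vitamin C and ethanol-only controls. IC50 from variable-slope Hill regression of dose-activity curves.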

[5] = system: Human dermal fibroblasts (HDF); assay: Mitochondrial dehydrogenase activity (WST-1 formazan assay) in HDF cells; conditions: for Revitalizing agent: 24 hours; for activity at 1 µM / activity at 10 µM: Homo sapiens, Fibroblast, read-out: % mitochondrial dehydrogenase activity ± SD
Method: Human dermal fibroblasts were used for assay at the 3rd T75 passage.
Mitochondrial dehydrogenase activity was measured in HDF, HEK and HUVEC cells by means of the formazan assay, using the WST-1 kit from Roche Diagnostic in accordance with the supplier's instructions. Briefly: the reagent was added (10 µl per well), the incubation was carried out for a further 2 hours or 4 hours, and, at the end of this time, the absorbance was read for 1 s at a wavelength of 450 nm in a Perkin Elmer Victor 2 Wallac microplate reader.
The activity percentage (% mitochondrial dehydrogenase activity) is defined as: % mitochondrial dehydrogenase activity = ((absorbance of treated cells - absorbance of blank) / (absorbance of control - absorbance of blank)) x 100.
The tests were performed with observations after 18 hours, seeding 8,000 cells per well, and after 42 hours, seeding 2,000 cells per well. Furthermore, in order to better analyze the dose/response curves for dihydroberberine, canadine and stylopine, curves were collected at 11 concentrations by seeding 2,000 cells per well with 46 hours incubation.
Dose/response curves are plotted at 6 concentrations. The tests were performed with observations after 24 hours, seeding 8,000 cells per well.

[6] = system: collagen produced by HDF cells; assay: Quantity of collagen produced by the cells (elution of Sirius Red); conditions: 1-10 µM (1 µM and 10 µM)
[7] = system: HDF cells; assay: Evaluation of cell proliferation (counting of Sirius Red stained cells in photographs); conditions: for No. of cells from photo ± SD: 24 hours
[8] = Dose 1 µm (coptisine: 1 pm [sic]), 24 hours
[9] = Dose 1 µm (coptisine: 1 pm [sic])

For `c1cc2c(c3c1C[C@H]1c4cc5c(cc4CCN1C3)OCO5)OCO2` [stylopine], the “IL-6 ng/(ml* No. of cells from photo) ± SD” value ([1]; 1 µM, 34 ng/ml TGF-β1) was 447±8 ng/(ml* No. of cells from photo), the “IL-6 ng/(ml* No. of cells from photo) ± SD” value ([1]; 1 µM, 100 µM H2O2) was 583±25 ng/(ml* No. of cells from photo) and the “IL-6 ng/(ml* No. of cells from photo) ± SD” value ([1]; 1 µM, Standard conditions) was 868±62 ng/(ml* No. of cells from photo). The “IL-6 ng/(ml* No. of cells from photo) ± SD” value ([1]; 10 µM, 34 ng/ml TGF-β1) was 528±33 ng/(ml* No. of cells from photo), the “IL-6 ng/(ml* No. of cells from photo) ± SD” value ([1]; 10 µM, 100 µM H2O2) was 449±2 ng/(ml* No. of cells from photo) and the “IL-6 ng/(ml* No. of cells from photo) ± SD” value ([1]; 10 µM, Standard conditions) was 961±38 ng/(ml* No. of cells from photo). For the same compound, the “IL-6 production (effect in words)” value ([1]; 34 ng/ml TGF-β1) was “antagonizes the production of IL-6”, the “IL-6 production (effect in words)” value ([1]; 100 µM H2O2) was “antagonizes the production of IL-6” and the “IL-6 production (effect in words)” value ([1]; standard conditions) was “inhibits the production of IL-6”. The “IL-1β ng/(ml* No. of cells from photo) ± SD” value ([2]; 1 µM, 34 ng/ml TGF-β1) was 97±3 ng/(ml* No. of cells from photo), the “IL-1β ng/(ml* No. of cells from photo) ± SD” value ([2]; 1 µM, 100 µM H2O2) was 100±4 ng/(ml* No. of cells from photo) and the “IL-1β ng/(ml* No. of cells from photo) ± SD” value ([2]; 1 µM, Standard conditions) was 159±10 ng/(ml* No. of cells from photo). The “IL-1β ng/(ml* No. of cells from photo) ± SD” value ([2]; 10 µM, 34 ng/ml TGF-β1) was 109±14 ng/(ml* No. of cells from photo), the “IL-1β ng/(ml* No. of cells from photo) ± SD” value ([2]; 10 µM, 100 µM H2O2) was 88±10 ng/(ml* No. of cells from photo) and the “IL-1β ng/(ml* No. of cells from photo) ± SD” value ([2]; 10 µM, Standard conditions) was 186±7 ng/(ml* No. of cells from photo). The “IL-1β production (effect in words)” value ([2]; 34 ng/ml TGF-β1) was “antagonizes the production of IL-1β”, the “IL-1β production (effect in words)” value ([2]; 100 µM H2O2) was “antagonizes the production of IL-1β” and the “IL-1β production (effect in words)” value ([2]; standard conditions) was “inhibits the production of IL-1β”. The Cytotoxic [3] was “No”, the Irritant [3] was “No” and the “Anti-fibrotic (prevention of scar formation, also from acne)” value [3, 8] was “Yes (↓collagen, ↓IL-6, ↓IL-1β)”. The “Cytoprotective (antioxidant, anti-inflammatory and anti-ageing; useful also in the treatment of acne)” value [3, 8] was “Yes (↓IL-6, ↓IL-1β)”, the Wound-healing [3, 8] was “Yes (↑profil)” and the “Anti-fibrotic (prevention of scar formation, also from acne)” value ([3]; Dose 10 µm, 24 hours) was “Yes (↓collagen, ↓IL-6. ↓IL-1β)”. The “Cytoprotective (antioxidant, anti-inflammatory and anti-ageing; useful also in the treatment of acne)” value ([3]; Dose 10 µm, 24 hours) was “Yes (↓IL-6, ↓IL-1β)”, the Cytotoxic ([3]; Dose 10 µm, 24 hours) was “No” and the Irritant ([3]; Dose 10 µm, 24 hours) was “No”. The Wound-healing ([3]; Dose 10 µm, 24 hours) was “No”, the “concentrations at which no toxic (cytotoxic and irritant) effects are shown” value ([3]; exposure for 24 hours) was “less than or equal to 10 µM” and the “% DPPH activity” value ([4]; 1 mM, 30 minutes) was 113%. For the same compound, the “Anti-radical (skin protective)” value [4, 9] was “No”, the “Anti-radical (skin protective)” value ([4]; Dose 10 µm) was “No” and the “concentrations below which no significant effects on mitochondrial dehydrogenase activity are shown” value [5] was “below 1 µM”. The “mitochondrial dehydrogenase activity (effect in words)” value ([5]; 10 µM, exposure time 42 h) was “increased with respect to the control”, the “mitochondrial dehydrogenase activity (effect in words)” value ([5]; 100 µM) was “less marked stimulation of mitochondrial dehydrogenase activity” and the Revitalizing agent [5, 9] was “Yes**”. The Revitalizing agent ([5]; Dose 10 µm) was “Yes”, the activity at 1 µM ([5]; 18 h) was 105 ± 9.5% and the activity at 10 µM ([5]; 18 h) was 107 ± 3%. It also gave an activity at 1 µM ([5]; 42 h) of 100 ± 15.8%, an activity at 10 µM ([5]; 42 h) of 151 ± 12.8% and an activity at 1 µM ([5]; 46 h) of 95.7%. The activity at 10 µM ([5]; 46 h) was 138 ± 23.9%, the “mitochondrial dehydrogenase activity (effect in words)” value ([5]; between 1 and 100 µM, exposure time 18 h) was “non-significant tendency to stimulate mitochondrial dehydrogenase activity in a dose-dependent manner” and the “mitochondrial dehydrogenase activity (effect in words)” value ([5]; fibroblast cells, higher doses) was “inhibit mitochondrial dehydrogenase activity”. The “mitochondrial dehydrogenase activity (effect in words)” value ([5]; fibroblast cells, low dosage) was “stimulate mitochondrial dehydrogenase activity”, the “collagen production (effect in words)” value ([6]; 34 ng/ml TGF-β1) was “antagonizes the stimulation of collagen induced by 34 ng/ml TGF-β1” and the “collagen production (effect in words)” value ([6]; 100 µM H2O2) was “tendency to inhibit collagen production”. The “cell proliferation (effect in words)” value ([7]; 1 µM) was “tendency to stimulate cell proliferation”, the “No. of cells from photo ± SD” value ([7]; 1 µM, 34 ng/ml TGF-β1) was 237±19 and the “No. of cells from photo ± SD” value ([7]; 1 µM, 100 µM H2O2) was 240±12. The “No. of cells from photo ± SD” value ([7]; 1 µM, Standard conditions) was 234± 7, the “No. of cells from photo ± SD” value ([7]; 10 µM, 34 ng/ml TGF-β1) was 210±17 and the “No. of cells from photo ± SD” value ([7]; 10 µM, 100 µM H2O2) was 249±8. For the same compound, the “No. of cells from photo ± SD” value ([7]; 10 µM, Standard conditions) was 183±12.
